Results published in ChEMBL document CHEMBL1201862, “PubChem BioAssay data set” (2004).
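Exposure lasted 48 hours, with cells grown in 96-well plates and compounds tested at five concentrations. GI50 = concentration required for 50% inhibition of growth.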 Active and inactive are the calls of the source. Cut-off read from the data, not from the text of the source: active = GI50 up to about 1.1 µM and inactive = higher.

What was measured:
Assay in all cases: growth of human tumour cells (NCI), 48 h
[1] = test system: HOP-62
[2] = test system: LOX IMVI
[3] = test system: SF-295
[4] = test system: OVCAR-5
[5] = test system: HOP-92
[6] = test system: SW-620
[7] = test system: OVCAR-3
[8] = test system: RXF 393
[9] = test system: SNB-19
[10] = test system: NCI-H23
[11] = test system: NCI-H522
[12] = test system: SK-MEL-5
[13] = test system: HCC 2998
[14] = test system: OVCAR-4
[15] = test system: M14
[16] = test system: ACHN
[17] = test system: IGROV-1

Measured: GI50

COc1cc(C=C2C(=O)NC(=O)NC2=O)cc(OC)c1OC
inactive: [1] > 100 µM | [2] > 100 µM | [3] > 100 µM | [4] > 100 µM | [5] > 100 µM | [6] > 100 µM | [7] > 100 µM | [8] > 100 µM | [9] > 100 µM | [10] > 100 µM | [11] > 100 µM | [12] > 100 µM | [13] > 100 µM | [14] > 100 µM | [15] > 100 µM | [16] > 100 µM

CNC(=O)CN(CC(N)=O)C(N)=O
inactive: [1] > 100 µM | [2] > 100 µM | [3] > 100 µM | [4] > 100 µM | [5] > 100 µM | [6] > 100 µM | [7] > 100 µM | [8] > 100 µM | [9] > 100 µM | [17] > 100 µM | [10] > 100 µM | [11] > 100 µM | [12] > 100 µM | [13] > 100 µM | [14] > 100 µM | [15] > 100 µM | [16] > 100 µM

C[C@H](O)CCC(=O)c1ccoc1
inactive: [1] > 100 µM | [2] > 100 µM | [3] > 100 µM | [4] > 100 µM | [5] > 100 µM | [6] > 100 µM | [7] > 100 µM | [8] > 100 µM | [9] > 100 µM | [17] > 100 µM | [10] > 100 µM | [11] > 100 µM | [12] > 100 µM | [13] > 66.1 µM | [14] > 100 µM | [15] > 100 µM | [16] > 100 µM

NC(=S)N1N=C2c3ccccc3CC[C@@H]2[C@@H]1c1ccccc1
inactive: [1] 5.43 µM | [2] 5.86 µM | [3] 3.13 µM | [4] 24.3 µM | [5] 11.2 µM | [6] 3.84 µM | [7] 2.92 µM | [8] 4.95 µM | [9] 5.77 µM | [17] 12.6 µM | [10] 4.68 µM | [11] 1.5 µM | [12] 3.82 µM | [13] 6.78 µM | [14] 23.8 µM | [15] 4.4 µM | [16] 7.94 µM

Nc1n/c(=N\c2ccccc2)ss1
inactive: [1] > 100 µM | [2] 51.4 µM | [3] > 100 µM | [4] > 100 µM | [5] > 100 µM | [6] > 100 µM | [7] > 100 µM | [8] > 100 µM | [9] > 100 µM | [17] > 100 µM | [10] > 100 µM | [11] > 100 µM | [12] > 100 µM | [13] > 100 µM | [14] > 100 µM | [15] > 100 µM | [16] > 100 µM

O=C1C2C=CC(n3[nH]c(=O)n(Cc4ccccc4)c3=O)CC2C(=O)N1c1ccc(Br)cc1 (stereo not drawn)
inactive: [1] > 100 µM | [2] > 100 µM | [3] > 100 µM | [4] > 100 µM | [5] > 100 µM | [6] > 100 µM | [7] > 100 µM | [8] > 100 µM | [9] > 100 µM | [17] > 100 µM | [10] > 100 µM | [11] > 100 µM | [12] > 100 µM | [13] > 100 µM | [14] > 100 µM | [15] > 100 µM | [16] > 100 µM

COC(=O)c1nc(NC#N)nc(O)c1C
inactive: [1] > 100 µM | [2] > 100 µM | [3] > 100 µM | [4] > 100 µM | [5] 50.2 µM | [6] > 100 µM | [7] > 100 µM | [8] > 100 µM | [9] > 67.9 µM | [17] > 72.9 µM | [10] > 78.7 µM | [11] > 80.4 µM | [12] > 100 µM | [13] > 100 µM | [14] > 100 µM | [15] > 100 µM | [16] > 73.6 µM

CCOc1ccc(NC(=O)C2=C(C)NC(C)=C(C(=O)Nc3ccc(OCC)cc3)C2c2ccc([N+](=O)[O-])cc2)cc1
inactive: [1] 36.1 µM | [2] 42 µM | [3] 38 µM | [4] 31.8 µM | [5] 12.9 µM | [6] 22.3 µM | [7] 30.3 µM | [8] 14 µM | [9] 36 µM | [17] 49 µM | [10] 28.2 µM | [11] 22.6 µM | [12] 15.3 µM | [13] 22.1 µM | [14] 9.29 µM | [15] 23.7 µM | [16] 21.1 µM

O=C(Nc1ccccc1-c1nn(C(=S)Nc2ccccc2)c(=S)n(C(=S)Nc2ccccc2)c1=O)C(F)(F)F
inactive: [1] 29.3 µM | [2] 19.8 µM | [3] 31.3 µM | [4] 49.9 µM | [5] 12.8 µM | [6] 23.9 µM | [7] 21.6 µM | [8] 34 µM | [9] 35.4 µM | [17] 21.5 µM | [10] 15.5 µM | [11] 13.6 µM | [12] 11.7 µM | [13] 25.3 µM | [14] 17.1 µM | [15] 20.4 µM | [16] 24.4 µM

O=c1[nH]c(=O)n(C2OC(CO)C(O)C2O)cc1OCC(F)(F)F (stereo not drawn)
inactive: [1] > 100 µM | [2] > 100 µM | [3] > 100 µM | [4] > 100 µM | [5] > 100 µM | [6] > 100 µM | [7] > 100 µM | [8] > 100 µM | [9] > 100 µM | [17] > 100 µM | [10] > 100 µM | [11] > 100 µM | [12] > 100 µM | [13] > 100 µM | [14] > 100 µM | [15] > 100 µM | [16] > 100 µM

CC/C=C/c1cc2cc[nH]c2c2c1C(C)C[C@@H]2C (stereo partly drawn)
inactive: [2] 17.1 µM | [3] 24.4 µM | [5] 24.2 µM | [6] 31.9 µM | [7] 18.9 µM | [8] 17.7 µM | [17] 40.4 µM | [10] 21.4 µM | [11] 18.1 µM | [12] 21.6 µM | [13] > 10 µM | [15] 28.1 µM | [16] 73.5 µM

CC(=O)OC(C[C@H](C)[C@@H]1CC[C@]2(C)C3=CCC4C(C)(C)C(=O)CC[C@]4(C)C3CCC12C)C1OC1(C)C (stereo partly drawn)
inactive: [1] 20.4 µM | [2] 27.9 µM | [3] 22.7 µM | [4] 16.7 µM | [5] 11.9 µM | [6] 34.1 µM | [7] 88.9 µM | [8] 15.1 µM | [9] 39.6 µM | [17] 21.9 µM | [10] 20.5 µM | [11] 12.9 µM | [13] 16.4 µM | [14] 28 µM | [15] 20.1 µM | [16] 11.5 µM
